Assay results taken from patent publication US6372183B1 (priority 1991, dated 2002).
Like-named read-outs stand apart in the source and are kept apart here.

Experiments:
[1] = system: nicotinic acetylcholine receptors (NAChR)
Procedure: The cells were plated and loaded with the fluorescent dye Fluo-3 and the assays were carried out substantially as described in the modified method of Example 3A except that the nicotinic receptors of the cells were activated.

[2] = system: muscarinic acetylcholine receptors (MAChRs)
[3] = system: voltage-dependent calcium channels
Procedure: (§1) SHSY5Y cells, induced for six days with 10 μM retinoic acid (Sigma), and IMR32 cells, induced for ten days with 1 mM dibutyryl cAMP (dbcAMP) and 2.5 μM bromodeoxyuridine (BrdU) (both from Boehringer-Mannheim, Indianapolis, IN) were treated with various calcium channel interactive drugs before kCl depolarization and measurement of fluorescence.

[4] = system: voltage-dependent calcium channels; remark: listed apart in the source
Procedure: as §1

[5] = biological target: human neuronal calcium channel α1D, α2 and β subunits (Homo sapiens, UniProt Q01668); settings: 13old cells; 50 mM KCl
Chain of human neuronal calcium channel α1D, α2 and β subunits (Q01668 whole entry): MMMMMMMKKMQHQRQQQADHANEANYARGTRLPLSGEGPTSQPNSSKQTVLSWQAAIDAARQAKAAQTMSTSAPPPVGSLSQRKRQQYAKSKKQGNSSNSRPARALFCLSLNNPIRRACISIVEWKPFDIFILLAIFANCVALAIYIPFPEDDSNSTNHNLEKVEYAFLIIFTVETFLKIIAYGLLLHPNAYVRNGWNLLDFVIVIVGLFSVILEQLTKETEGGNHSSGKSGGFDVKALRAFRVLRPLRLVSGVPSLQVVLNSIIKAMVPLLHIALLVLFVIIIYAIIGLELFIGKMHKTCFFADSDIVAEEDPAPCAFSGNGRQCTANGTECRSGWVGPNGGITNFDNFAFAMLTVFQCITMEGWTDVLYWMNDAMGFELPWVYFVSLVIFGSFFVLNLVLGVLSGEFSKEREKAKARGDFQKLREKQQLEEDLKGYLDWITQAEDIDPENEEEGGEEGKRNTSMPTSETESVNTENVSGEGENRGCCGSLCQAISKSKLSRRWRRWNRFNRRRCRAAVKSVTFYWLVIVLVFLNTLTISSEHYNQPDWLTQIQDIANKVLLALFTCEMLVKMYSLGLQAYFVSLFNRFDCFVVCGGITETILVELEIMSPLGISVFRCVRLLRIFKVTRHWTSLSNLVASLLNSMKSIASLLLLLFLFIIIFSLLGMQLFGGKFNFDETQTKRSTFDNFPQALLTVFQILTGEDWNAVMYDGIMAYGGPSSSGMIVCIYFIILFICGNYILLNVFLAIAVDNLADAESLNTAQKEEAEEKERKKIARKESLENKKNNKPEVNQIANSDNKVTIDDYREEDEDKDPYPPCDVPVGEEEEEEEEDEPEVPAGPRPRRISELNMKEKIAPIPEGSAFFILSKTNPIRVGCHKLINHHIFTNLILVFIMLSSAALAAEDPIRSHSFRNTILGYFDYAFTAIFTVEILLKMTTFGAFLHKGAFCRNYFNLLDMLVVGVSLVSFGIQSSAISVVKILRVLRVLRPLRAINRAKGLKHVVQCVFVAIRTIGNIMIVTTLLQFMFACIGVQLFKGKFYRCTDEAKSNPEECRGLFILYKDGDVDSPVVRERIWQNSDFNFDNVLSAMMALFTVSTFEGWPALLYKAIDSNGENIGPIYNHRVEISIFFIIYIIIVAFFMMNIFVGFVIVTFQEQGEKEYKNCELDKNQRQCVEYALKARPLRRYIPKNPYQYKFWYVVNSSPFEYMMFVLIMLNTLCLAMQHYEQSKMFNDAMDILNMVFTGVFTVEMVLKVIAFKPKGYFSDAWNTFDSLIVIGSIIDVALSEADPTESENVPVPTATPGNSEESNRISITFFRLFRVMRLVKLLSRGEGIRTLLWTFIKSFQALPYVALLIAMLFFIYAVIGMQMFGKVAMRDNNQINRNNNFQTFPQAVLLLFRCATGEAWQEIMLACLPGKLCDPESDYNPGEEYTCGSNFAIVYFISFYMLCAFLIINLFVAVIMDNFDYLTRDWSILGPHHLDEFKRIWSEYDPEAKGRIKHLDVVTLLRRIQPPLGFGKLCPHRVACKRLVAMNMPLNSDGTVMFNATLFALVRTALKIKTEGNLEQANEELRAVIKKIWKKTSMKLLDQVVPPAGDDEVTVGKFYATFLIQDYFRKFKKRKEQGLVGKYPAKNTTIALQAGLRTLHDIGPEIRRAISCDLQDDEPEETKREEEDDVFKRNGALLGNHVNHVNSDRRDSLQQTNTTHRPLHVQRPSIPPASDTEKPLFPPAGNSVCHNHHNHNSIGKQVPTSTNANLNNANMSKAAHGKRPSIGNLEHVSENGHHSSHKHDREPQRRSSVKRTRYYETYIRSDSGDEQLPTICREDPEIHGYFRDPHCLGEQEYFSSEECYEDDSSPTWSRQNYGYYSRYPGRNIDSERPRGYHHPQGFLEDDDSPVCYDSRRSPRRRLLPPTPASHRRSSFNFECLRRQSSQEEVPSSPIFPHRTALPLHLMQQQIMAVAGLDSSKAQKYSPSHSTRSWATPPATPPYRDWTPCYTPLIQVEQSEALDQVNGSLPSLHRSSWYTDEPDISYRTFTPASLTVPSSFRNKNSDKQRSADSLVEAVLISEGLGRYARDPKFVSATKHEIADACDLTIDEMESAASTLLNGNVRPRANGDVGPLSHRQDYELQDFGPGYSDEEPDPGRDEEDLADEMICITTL
Procedure: The assays were conducted using the fully automated version of the assay, as described for analysis of calcium channels in positive control IMR32 and SHSY5Y cells. Fluorescence was measured prior to addition of KCl to the cells to record pre-reagent fluorescence, i.e., noise, fluorescence. Signal fluorescence is the maximal fluorescence recorded after addition of KCl to the cells.
The automated assays were performed as described for analysis of calcium channel activity of IMR32 and SHSY5Y cells. For each dose-dependence assay, different wells of the microtiter plate received different concentrations of the agonist or antagonist, the background fluorescence was measured, and. […] Repeated fluorescence measurements were made before and after KCl addition and the values were recorded. A total of five fluorescence readings were taken before KCl addition. […] The plate was then automatically repositioned at the fluorescence measuring position (a delay of two seconds was measured between reagent addition and the first fluorescence measurement after reagent addition) and 125 fluorescence measurements were taken and values were recorded. […]
Dose-response curves were generated from the fluorescence data. In constructing these curves, the fluorescence value recorded in the presence of each concentration of compound was plotted as the percent maximum fluorescence vs. concentration. […]

## C[N+](C)(C)CCCCCC[N+](C)(C)C [hexamethonium]
[1]
  Fluorescence S/N ratio: 1.0

## CN1[C@@H]2C[C@@H](OC(=O)[C@H](CO)c3ccccc3)C[C@H]1[C@@H]1O[C@@H]12 [scopolamine]
[2]
  Fluorescence S/N ratio: 1.0

## CN1CCCC1c1cccnc1 (stereo not shown) [nicotine]
[1]; IMR32 cells, 200 μM agonist alone, Equation 2
  Fluorescence S/N ratio: 2.3

## Bay K 8644 [BayK 8644]
[3]; SHSY5Y, 50 mM KCl and 1 μM compound
  Fluorescence Signal to Noise Ratio: 2.7
[4]; IMR32, 50 mM KCl and 1 μM compound
  Fluorescence Signal to Noise Ratio: 2.5
[5]
  Concentration at which potentiation of the fluorescence response to KCl was maximal: 100 nM

## cadmium
[3]; SHSY5Y, 50 mM KCl and 200 μM compound
  Fluorescence Signal to Noise Ratio: 1.0
[4]; IMR32, 50 mM KCl and 200 μM compound
  Fluorescence Signal to Noise Ratio: 1.0

## D-tubocurarine [DTC]
[1]
  Fluorescence S/N ratio: 1.0

## omega-CgTx
[5]
  Inhibition of the KCl-induced fluorescence increase (in words): did not completely inhibit

## CNC1(C)C2CCC(C2)C1(C)C (stereo not shown) [mecamylamine]
[1]
  Fluorescence S/N ratio: 1.0

## KCl [KC1]
[3]; SHSY5Y (retinoic acid induced), 50 mM KCl alone
  Fluorescence Signal to Noise Ratio: 1.9
[4]; IMR32 (dbcAMP/BrdU induced), 50 mM KCl alone
  Fluorescence Signal to Noise Ratio: 2.3
